In publication PMC8745710, “Biological Evaluation and Molecular Docking Studies of Novel 1,3,4-Oxadiazole Derivatives of 4,6-Dimethyl-2-sulfanylpyridine-3-carboxamide” (International Journal of Molecular Sciences, 2022):

Assays:
COX-2 = molecular target: T1, COX-2 (Homo sapiens, UniProt P35354); assay: COX colorimetric inhibitor screening assay, COX-2; assay type: biochemical; conditions: for IC50 / IC50 [µM] ± SD COX-2: after 2 min of incubation, n = 5; for IC50: read-out: IC50 [µM] ± SD COX-2; for COX-2/COX-1 Selectivity Ratio: ratio of IC50 COX-2 / IC50 COX-1
T1 construct: purchased Cayman Chemical Company, Ann Arbor, MI, USA
T1 sequence (P35354 18-604): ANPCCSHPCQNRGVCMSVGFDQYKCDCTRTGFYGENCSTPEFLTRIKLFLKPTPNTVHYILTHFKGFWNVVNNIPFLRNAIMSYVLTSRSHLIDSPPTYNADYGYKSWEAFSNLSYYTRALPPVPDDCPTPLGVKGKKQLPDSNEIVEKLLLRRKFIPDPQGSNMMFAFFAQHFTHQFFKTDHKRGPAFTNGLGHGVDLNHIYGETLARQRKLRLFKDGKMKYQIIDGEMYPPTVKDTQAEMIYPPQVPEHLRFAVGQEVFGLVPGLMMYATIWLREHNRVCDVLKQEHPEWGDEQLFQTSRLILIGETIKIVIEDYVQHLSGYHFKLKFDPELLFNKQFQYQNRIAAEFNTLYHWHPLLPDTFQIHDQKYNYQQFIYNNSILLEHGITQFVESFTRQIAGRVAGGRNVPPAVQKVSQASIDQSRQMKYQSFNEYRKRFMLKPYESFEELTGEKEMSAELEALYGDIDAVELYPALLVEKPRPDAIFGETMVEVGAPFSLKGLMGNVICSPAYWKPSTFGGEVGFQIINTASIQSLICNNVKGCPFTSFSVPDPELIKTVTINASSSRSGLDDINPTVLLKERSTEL
Excerpt: The compounds were studied for their potencies to inhibit COX-1 and COX-2 enzymes by the colorimetric inhibitor screening assay.
A COX Colorimetric Inhibitor Screening Assay Kit, produced by Cayman Chemical Company, Ann Arbor, MI, USA, was used. It used the colorimetric monitoring of oxidized form of TMPD (N,N,N′,N′-tetramethyl-p-phenylenediamine) which was produced during reduction of prostaglandin G2 (PGG2) to PGH2. […] Reagents used it this assay were: COX-1 and COX-2 enzymes, Tris-HCl buffer, solutions of heme in DMSO and TMPD, arachidonic acid, KOH. To be sure that 100% enzymatic activity was achieved each sample was measured 3 times. The probes were measured after two minutes of incubation with tested compounds in the comparison to the initial activity of enzyme.

[1] = test system: LoVo/Dx (drug resistant subline of LoVo); assay: MTT assay, LoVo/Dx; assay type: cell-based; conditions: Homo sapiens, 48 h incubation, read-out: IC50 [µM] ± SD LoVo/Dx
Excerpt: (§1) The MTT (3-[4,5-dimethylthiazol-2-yl]-2,5-diphenyl tetrazolium bromide) assay was used to determine the cytotoxicity of tested compounds towards different cell lines: normal human dermal fibroblasts (NHDF), kidney epithelial cells (VERO), fibroblasts from Chinese hamster lung (V79) and four human cancer cells: A549 (pulmonary basal cell alveolar adenocarcinoma), MCF-7 (breast adenocarcinoma), LoVo (colon adenocarcinoma), and its drug resistant subline LoVo/Dx. The cell lines used in this study express COX-1 and COX-2. The LoVo line expressed COX-1, the LoVo/Dx subline express both COX-1 and COX-2 [61].
Each cell line was grown in the culture media recommended by supplier. Before the test they were detached with trypsin/EDTA solution, then to neutralize the effect of Trypsin/EDTA solution, FBS containing medium was used. After centrifugation the cells were stained with 0.4% solution of trypan blue, counted and inspected for viability using microscope. […] The number of cells was 2 × 10^3 cells per well. The tested compounds with different concentrations (5, 10, 20, 50, 100 µM) were dissolved in DMSO and then added to the cells (the final DMSO concentration was 0.1%). The cultures were incubated for another 48 h. After that time the cells were collected to be used in tests.
MTT assay was used to find out how tested compounds influence the metabolic activity of investigated cell lines. The cells were incubated with tested compounds. […] The medium was removed again, and formazan crystals were dissolved in isopropanol.

[2] = test system: NHDF (normal human dermal fibroblasts); assay: MTT assay, NHDF; assay type: cell-based; conditions: 48 h incubation, read-out: IC50 [µM] ± SD NHDF
Excerpt: as §1
(§2) Each cell line was grown in the culture media recommended by supplier. Before the test they were detached with trypsin/EDTA solution, then to neutralize the effect of Trypsin/EDTA solution, FBS containing medium was used. After centrifugation the cells were stained with 0.4% solution of trypan blue, counted and inspected for viability using microscope. In the end, cells were inserted into 96-well culture plates and incubated in CO2 incubator (37 °C, 24 h). The number of cells was 2 × 10^3 cells per well. The tested compounds with different concentrations (5, 10, 20, 50, 100 µM) were dissolved in DMSO and then added to the cells (the final DMSO concentration was 0.1%). The cultures were incubated for another 48 h. After that time the cells were collected to be used in tests.
(§3) MTT assay was used to find out how tested compounds influence the metabolic activity of investigated cell lines. The cells were incubated with tested compounds. After removing of supernatant, 1 mg/mL of MTT solution in MEM was added to the plate (to each well) and then the plates were incubated at 37 °C for 2 h. The medium was removed again, and formazan crystals were dissolved in isopropanol. A Varioscan LUX microplate reader (Thermo Fisher Scientific, Waltham, MA, USA) was used to measure absorbance at 570 nm.

[3] = test system: LoVo (colon adenocarcinoma); assay: MTT assay, LoVo; assay type: cell-based; conditions: Homo sapiens, 48 h incubation, read-out: IC50 [µM] ± SD LoVo
Excerpt: as §1, §2, §3

Compound	IC50 (COX-2) [µM]	COX-2/COX-1 Selectivity Ratio (COX-2)	IC50 [1] [µM]	IC50 [3] [µM]	melting point [°C]	IC50 [µM] ± SD COX-2 (COX-2)	IC50 [2] [µM]
Cc1ccc(C=NNC(=O)Cn2nc(CNC(=O)c3c(C)cc(C)nc3S)oc2=S)cc1 [Compound 7, 4,6-Dimethyl-N-{[4-(2-(2-(4-methylbenzylidene)hydrazinyl)-2-oxoethyl)-5-sulfanylidene-4,5-dihydro-1,3,4-oxadiazole-2-yl]methyl}-2-sulfanylpyridine-3-carboxamide]	184 ± 18.8	1.25	7.89 ± 1.78	3.46 ± 0.39	215 to 220	–	58.2 ± 2
CSc1ccc(/C=N\NC(=O)Cn2nc(CNC(=O)c3c(C)cc(C)nc3S)oc2=S)cc1 [Compound 8, 4,6-Dimethyl-N-{[4-(2-(2-(4-methysulfanylbenzylidene)hydrazinyl)-2-oxoethyl)-5-sulfanylidene-4,5-dihydro-1,3,4-oxadiazole-2-yl]methyl}-2-sulfanylpyridine-3-carboxamide]	–	–	21 ± 5.92	3.6 ± 0.55	235 to 238	showed only COX-1 inhibitory activity	58.7 ± 1.94
Cc1cc(C)c(C(=O)NCc2nn(CC(=O)NN)c(=S)o2)c(S)n1 [Compound 4, N-{[4-(2-hydrazinyl-2-oxoethyl)-5-sulfanylidene-4,5-dihydro-1,3,4-oxadiazol-2-yl]methyl}-4,6-dimethyl-2-sulfanylpyridine-3-carboxamide]	–	–	5.73 ± 3.84	3.01 ± 0.2	201 to 205	showed only COX-1 inhibitory activity	57.5 ± 1.22
Cc1cc(C)c(C(=O)NCc2nn(CC(=O)NN=Cc3ccc(F)cc3)c(=S)o2)c(S)n1 [Compound 6, 4,6-Dimethyl-N-{[4-(2-(2-(4-fluorobenzylidene)hydrazinyl)-2-oxoethyl)-5-sulfanylidene-4,5-dihydro-1,3,4-oxadiazole-2-yl]methyl}-2-sulfanylpyridine-3-carboxamide]	174 ± 5.84	1.20	7.07 ± 2.48	3.2 ± 0.26	295 to 298	–	58.2 ± 0.92
Cc1cc(C)c(C(=O)NCc2nn(CC(=O)NN=Cc3ccccc3)c(=S)o2)c(S)n1 [Compound 5, 4,6-Dimethyl-N-{[4-(2-(2-benzylidenehydrazinyl)-2-oxoethyl)-5-sulfanylidene-4,5-dihydro-1,3,4-oxadiazol-2-yl]methyl}-2-sulfanylpyridine-3-carboxamide]	187 ± 15.3	2.53	5.69 ± 1.03	3.13 ± 0.17	236 to 239	–	59 ± 1.49

Now from value to compound, other results behind:

IC50 (COX-2) [µM]	COX-2/COX-1 Selectivity Ratio (COX-2)	IC50 [1] [µM]	IC50 [3] [µM]	melting point [°C]	IC50 [µM] ± SD COX-2 (COX-2)	Compound	IC50 [2] [µM]
90.7 ± 19.6	1.36	22.6 ± 8.19	3.07 ± 0.21	273 to 275	–	Cc1cc(C)c(C(=O)NCc2nn(CC(=O)NN=Cc3cccc(Cl)c3)c(=S)o2)c(S)n1 [Compound 12, 4,6-Dimethyl-N-{[4-(2-(2-(3-chlorobenzylidene)hydrazinyl)-2-oxoethyl)-5-sulfanylidene-4,5-dihydro-1,3,4-oxadiazole-2-yl]methyl}-2-sulfanylpyridine-3-carboxamide]	58.7 ± 2.21
103 ± 10.6	0.67	6.87 ± 1.45	3.24 ± 0.1	298 to 300	–	Cc1cc(C)c(C(=O)NCc2nn(CC(=O)NN=Cc3ccc(C#N)cc3)c(=S)o2)c(S)n1 [Compound 9, 4,6-Dimethyl-N-{[4-(2-(2-(4-cyanobenzylidene)hydrazinyl)-2-oxoethyl)-5-sulfanylidene-4,5-dihydro-1,3,4-oxadiazole-2-yl]methyl}-2-sulfanylpyridine-3-carboxamide]	59.4 ± 1.9
73.2 ± 5.66	–	9.4 ± 5.97	2.89 ± 0.08	285 to 288	–	Cc1cc(C)c(C(=O)NCc2nn(CC(=O)NN=Cc3ccccc3Br)c(=S)o2)c(S)n1 [Compound 13, 4,6-Dimethyl-N-{[4-(2-(2-(2-bromobenzylidene)hydrazinyl)-2-oxoethyl)-5-sulfanylidene-4,5-dihydro-1,3,4-oxadiazole-2-yl]methyl}-2-sulfanylpyridine-3-carboxamide]	59.3 ± 3.43
170 ± 19.1	1.97	17.5 ± 8.73	3.12 ± 0.31	253 to 255	–	Cc1cc(C)c(C(=O)NCc2nn(CC(=O)NN=Cc3ccc(C(F)(F)F)cc3)c(=S)o2)c(S)n1 [Compound 11, 4,6-Dimethyl-N-{[4-(2-(2-(4-trifluoromethylbenzylidene)hydrazinyl)-2-oxoethyl)-5-sulfanylidene-4,5-dihydro-1,3,4-oxadiazole-2-yl]methyl}-2-sulfanylpyridine-3-carboxamide]	59 ± 3.62
128 ± 1.87	–	22.3 ± 2.1	3.12 ± 0.23	278 to 280	–	Cc1cc(C)c(C(=O)NCc2nn(CC(=O)NN=Cc3ccc(Cl)cc3)c(=S)o2)c(S)n1 [Compound 10, 4,6-Dimethyl-N-{[4-(2-(2-(4-chlorobenzylidene)hydrazinyl)-2-oxoethyl)-5-sulfanylidene-4,5-dihydro-1,3,4-oxadiazole-2-yl]methyl}-2-sulfanylpyridine-3-carboxamide]	59.9 ± 2.04
